Article PMC11425624, “Synthesis of Novel Cu(II), Co(II), Fe(II), and Ni(II) Hydrazone Metal Complexes as Potent Anticancer Agents: Spectroscopic, DFT, Molecular Docking, and MD Simulation Studies” (ACS Omega, 2024)

Experiments:
A549 = assay: MTT cytotoxic activity assay, A549 cells, 72 h; format: cell-based, human; settings: for IC50: A549 human lung cancer cell line, MTT
Procedure: (§1) The complexes were tested in human lung cancer and normal embryonic kidney cell lines for 72 h.
The MTT stock solution (50 μL, 5 mg/mL) was added to each well. Absorbance was measured using an Epoch 2 ELISA plate reader at 590 nm. The IC50 values were calculated using GraphPad Prism Software version 5.

HEK-293T = assay: MTT cytotoxic activity assay, HEK-293T cells, 72 h; format: cell-based; settings: HEK-293T healthy human embryonic kidney cell line
Procedure: as §1
Cytotoxic activity studies of compounds (L, L-Cu, L-Co, and L-Fe) were conducted according to the literature.[60] Human lung epithelial carcinoma cells (A549; ATCC CCL-185) and healthy human embryonic kidney cells (HEK-293T) were cultured in Dulbecco’s modified Eagle’s medium-high-glucose supplemented with 10% fetal bovine serum and 1% GlutaMAX in a CO2 incubator at 37 °C. Cells seeded in 96-well plates were exposed to 200, 100, 50, and 25 μM of compounds for 72 h. The MTT stock solution (50 μL, 5 mg/mL) was added to each well. Absorbance was measured using an Epoch 2 ELISA plate reader at 590 nm. The IC50 values were calculated using GraphPad Prism Software version 5.

[1] = Dissolution in cytotoxicity assay medium (0.5% DMSO, DMEM); format: physicochemical
Description: When the ligand and L-Cu were compared, the cytotoxic effect of L-Cu was almost 17 times more cytotoxic than that of the ligand, including 2-hydroxybenzylidene and 4-fluorobenzohydrazide groups. […] However, the effect of the other two metal complexes (L-Co and L-Fe) and the ligand used as the starting material on the growth of A549 cells was very low compared to that of the positive control drug.

[2] = A549, 50 μM concentration of compound, 72 h
[3] = A549, 200 μM concentration of compound, 72 h

Row | Compound | Cell viability (A549; [2]) [%] | Cell viability rate (A549; [3]) [%] | Effectiveness relative to cisplatin (A549; A549 cells) | IC50 (A549; 72 h) [µM] | Times more cytotoxic than the ligand (A549; L-Cu compared with ligand L) [times] | IC50 (HEK-293T) [µM] | Solubility in assay medium [1] | viability at 50 µM (A549; Homo sapiens, A549, 50 μM concentration of compound, 72 h, read-out: Cell viability) [%] | viability at 200 µM (A549; Homo sapiens, A549, 200 μM concentration of compound, 72 h, read-out: Cell viability rate) [%]
1 | O=C(NN=Cc1ccccc1[O][Cu][O]c1ccccc1C=NNC(=O)c1ccc(F)cc1)c1ccc(F)cc1 [L-Cu] | 5.10 | 4.66 | approximately twice | 2.14 | ~17 | 2.32 |  |  | 
2 | O.O=C(NN=Cc1ccccc1[O-])c1ccc(F)cc1.O=C(NN=Cc1ccccc1[O-])c1ccc(F)cc1.[Ni+2] [L-Ni] |  |  |  |  |  |  | not fully dissolved in 0.5% DMSO and was precipitated in DMEM |  | 
3 | N.N.[Cl][Pt][Cl] [cisplatin, reference compound] |  |  |  | 4.23 |  | 2.62 |  |  | 
4 | O=C(NN=Cc1ccccc1[O][Fe][O]c1ccccc1C=NNC(=O)c1ccc(F)cc1)c1ccc(F)cc1 [L-Fe] | 92.96 | 5.72 |  | 78.8 |  | 69.2 |  |  | 
5 | O=C(NN=Cc1ccccc1O)c1ccc(F)cc1 [L, 4-Fluoro-N′-(2-hydroxybenzylidene)benzohydrazide] |  |  |  | 36.7 |  | 18.2 |  | 44.9 | 8.51
